Key:
Experiment in all cases: relative viability (nuclei count vs DMSO), 5 days (fraction); higher = more cells survive
Kobe2602 + Linsitinib = compound: C1=CC(=CC=C1NC(=S)NNC2=C(C=C(C=C2[N+](=O)[O-])C(F)(F)F)[N+](=O)[O-])F [Kobe2602] + C[C@]1(O)C[C@@H](c2nc(-c3ccc4ccc(-c5ccccc5)nc4c3)c3c(N)nccn32)C1 [Linsitinib] (partner 1 µM)
Method in brief: (§1)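 Cells from lung cancer lines were seeded into 1536-well plates and, one day later, dosed by pin tool. Treatments were either a single drug or a fixed dose of an anchor drug with five library-drug doses (not always all listed) in √10 steps. After 5 days, nuclei were stained in a one-step fixation (final 0.05% Triton X-100, 1% formaldehyde, 1 ug/ml Hoechst) and counted on 4× images, and relative viability is the treated-to-vehicle nuclei ratio, as the median of duplicate plates.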

Kobe2602 + Phenformin = compound: C1=CC(=CC=C1NC(=S)NNC2=C(C=C(C=C2[N+](=O)[O-])C(F)(F)F)[N+](=O)[O-])F [Kobe2602] + N=C(N)NC(=N)NCCc1ccccc1 [Phenformin] (partner 250 µM)
Method in brief: as §1

[1] = compound: COc1cc2nccc(Oc3ccc(NC(=O)C4(C(=O)Nc5ccc(F)cc5)CC4)cc3)c2cc1OC [Cabozantinib] + CC(=O)c1c(C)c2cnc(Nc3ccc(N4CCNCC4)cn3)nc2n(C2CCCC2)c1=O [Palbociclib] (partner 0.5 µM)
Method in brief: as §1

Zosuquidar + Linsitinib = compound: O[C@@H](COc1cccc2ncccc12)CN1CCN([C@@H]2c3ccccc3[C@@H]3[C@H](c4ccccc42)C3(F)F)CC1 [Zosuquidar] + C[C@]1(O)C[C@@H](c2nc(-c3ccc4ccc(-c5ccccc5)nc4c3)c3c(N)nccn32)C1 [Linsitinib] (partner 1 µM)
Method in brief: as §1

UMC-11 was tested, and the relative viability (Kobe2602 + Linsitinib; first compound 0.2 µM) was 1, the relative viability (Kobe2602 + Linsitinib; first compound 0.6325 µM) was 1.06 and the relative viability (Kobe2602 + Linsitinib; first compound 2 µM) was 0.997. The relative viability (Kobe2602 + Linsitinib; first compound 6.325 µM) was 0.996, the relative viability (Kobe2602 + Linsitinib; first compound 20 µM) was 0.947 and the relative viability (Kobe2602 + Phenformin; first compound 0.2 µM) was 0.358. For the same cell line, the relative viability (Kobe2602 + Phenformin; first compound 0.6325 µM) was 0.336, the relative viability (Kobe2602 + Phenformin; first compound 2 µM) was 0.334 and the relative viability (Kobe2602 + Phenformin; first compound 6.325 µM) was 0.335. For the same cell line, the relative viability (Kobe2602 + Phenformin; first compound 20 µM) was 0.306, the relative viability ([1]; first compound 0.02 µM) was 0.352 and the relative viability ([1]; first compound 0.06325 µM) was 0.324. The relative viability ([1]; first compound 0.2 µM) was 0.336, the relative viability ([1]; first compound 0.6325 µM) was 0.312 and the relative viability ([1]; first compound 2 µM) was 0.334. The relative viability (Zosuquidar + Linsitinib; first compound 0.01 µM) was 0.976, the relative viability (Zosuquidar + Linsitinib; first compound 0.03162 µM) was 0.98 and the relative viability (Zosuquidar + Linsitinib; first compound 0.1 µM) was 1.05. It also gave a relative viability (Zosuquidar + Linsitinib; first compound 0.3162 µM) of 1.07 and a relative viability (Zosuquidar + Linsitinib; first compound 1 µM) of 1.07.

From the supplement of paper PMC10307832
